Measurements published in US20070270484A1, “3'-N-Substituted-3-O-Substituted Erythronolide a Derivatives” (priority 2003, published 2007).
In brackets after ≈: the same amount, converted by molar mass.

Experiments:
S. pneum ATCC 49619 = experiment: MIC, agar incorporation method (NCCLS agar dilution method); assay type: cell-based, streptococcus pneumoniae; details: 35±2° C.; for Minimum Inhibitory Concentrations, S. pneum ATCC 49619: 18-24 hours, 5% CO2
Protocol: (§1) Drug dilutions and the agar plates are prepared by NCCLS method. Inoculum is prepared by direct colony suspensions in normal saline and adjusted to 0.5 McFarland turbidity and subsequently diluted as per NCCLS guidelines in order to obtain 10^4 CFU/spot. CFU/ml of a few randomly selected cultures is performed. The cultures are replicated on the agar plates using replicator (Denley's multipoint). The plates are incubated at 35±2° C. and in 5% CO2 atmosphere (for respiratory and Haemophilus strains) for 18-24 hours at 35±2° C. Minimum inhibitory concentrations (MIC) are determined after 18-24 hours. Q. C. strains are also included in each run of the study. The cation content of Mueller Hinton agar is checked by performing disk […] of 10 μg gentamicin disk against Pseudomonas aeroginosa ATCC 27853. The zone of inhibition should fall between 16-21 mm. The concentration of drug at which there is complete disappearance of growth spot or formation of less than 10 colonies per spot is considered as MIC.

S. pneum 1251 (mef) = experiment: as above; assay type: cell-based, streptococcus pneumoniae; details: 18-24 hours, 35±2° C., 5% CO2, mef: efflux pump mef genes
Protocol: as §1

S. pneum ATCC 6303 = experiment: as above; assay type: cell-based, streptococcus pneumoniae; details: 35±2° C.; for Minimum Inhibitory Concentrations, S. pneum ATCC 6303: 18-24 hours, 5% CO2
Protocol: as §1

S. pneum CS 1687 (mef) = experiment: as above; assay type: cell-based, streptococcus pneumoniae; details: 18-24 hours, 35±2° C., 5% CO2, mef: efflux pump mef genes
Protocol: as §1

S. pneum AB 34 (mef) = experiment: as above; assay type: cell-based, streptococcus pneumoniae; details: 18-24 hours, 35±2° C., 5% CO2, mef: efflux pump mef genes
Protocol: as §1

S. pneum AB 30 (erm) = experiment: microbe, parasite or virus in culture; assay type: cell-based, streptococcus pneumoniae; details: for Minimum Inhibitory Concentrations, S. pneum AB 30 (erm): agar dilution, 18-24 hours, 35±2° C., 5% CO2, erm: ribosomal modification (mutation) erm genes
Protocol: as §1

S. pneum AB 29 (erm) = experiment: microbe, parasite or virus in culture; assay type: cell-based, streptococcus pneumoniae; details: for Minimum Inhibitory Concentrations, S. pneum AB 29 (erm): agar dilution, 18-24 hours, 35±2° C., 5% CO2, erm: ribosomal modification (mutation) erm genes
Protocol: as §1

S. pneum 1294 (mef) = experiment: microbe, parasite or virus in culture; assay type: cell-based, streptococcus pneumoniae; details: for Minimum Inhibitory Concentrations, S. pneum 1294 (mef): agar dilution, 18-24 hours, 35±2° C., 5% CO2, mef: efflux pump mef genes
Protocol: as §1

S. pneum AB 14 (erm) = experiment: microbe, parasite or virus in culture; assay type: cell-based, streptococcus pneumoniae; details: for Minimum Inhibitory Concentrations, S. pneum AB 14 (erm): agar dilution, 18-24 hours, 35±2° C., 5% CO2, erm: ribosomal modification (mutation) erm genes
Protocol: as §1

S. pneum 1275 (erm) = experiment: microbe, parasite or virus in culture; assay type: cell-based, streptococcus pneumoniae; details: for Minimum Inhibitory Concentrations, S. pneum 1275 (erm): agar dilution, 18-24 hours, 35±2° C., 5% CO2, erm: ribosomal modification (mutation) erm genes
Protocol: as §1

S. pneum 1256 (erm) = experiment: microbe, parasite or virus in culture; assay type: cell-based, streptococcus pneumoniae; details: for Minimum Inhibitory Concentrations, S. pneum 1256 (erm): agar dilution, 18-24 hours, 35±2° C., 5% CO2, erm: ribosomal modification (mutation) erm genes
Protocol: as §1

MoraXella MI = experiment: MIC, agar incorporation method (NCCLS agar dilution method); assay type: cell-based; details: 18-24 hours, 35±2° C.
Protocol: as §1

H. inflenza ATCC 49247 = experiment: as above; assay type: cell-based, Haemophilus influenzae; details: for Minimum Inhibitory Concentrations, H. inflenza ATCC 49247: agar dilution, 18-24 hours, 35±2° C., 5% CO2
Protocol: Minimum inhibitory concentrations (μg/ml) were obtained for representative compounds of the invention, which are given in Table 2.
as §1

3-O-(4-Nitrophenyl)acetyl-5-O-(3′-N-desmethyl-3′-N-ethyl)desoaminyl-6-O-methyl erythronolide A [Compound No. 30]
Minimum Inhibitory Concentrations, S. pneum ATCC 49619 (S. pneum ATCC 49619): 1 µg/mL
Minimum Inhibitory Concentrations, S. pneum 1251 (mef) (S. pneum 1251 (mef)): 1 µg/mL
Minimum Inhibitory Concentrations, S. pneum ATCC 6303 (S. pneum ATCC 6303): 1 µg/mL
Minimum Inhibitory Concentrations, S. pneum CS 1687 (mef) (S. pneum CS 1687 (mef)): 1 µg/mL
Minimum Inhibitory Concentrations, S. pneum AB 34 (mef) (S. pneum AB 34 (mef)): >16 µg/mL
Minimum Inhibitory Concentrations, S. pneum AB 30 (erm) (S. pneum AB 30 (erm)): >16 µg/mL
Minimum Inhibitory Concentrations, S. pneum AB 29 (erm) (S. pneum AB 29 (erm)): <0.5 µg/mL
Minimum Inhibitory Concentrations, S. pneum 1294 (mef) (S. pneum 1294 (mef)): 2 µg/mL
Minimum Inhibitory Concentrations, S. pneum AB 14 (erm) (S. pneum AB 14 (erm)): >16 µg/mL
Minimum Inhibitory Concentrations, S. pneum 1275 (erm) (S. pneum 1275 (erm)): >16 µg/mL
Minimum Inhibitory Concentrations, S. pneum 1256 (erm) (S. pneum 1256 (erm)): >16 µg/mL
Minimum Inhibitory Concentrations, MoraXella MI (MoraXella MI): 4 µg/mL
Minimum Inhibitory Concentrations, H. inflenza ATCC 49247 (H. inflenza ATCC 49247): >16 µg/mL

CC[C@H]1OC(=O)[C@H](C)[C@@H](O[C@H]2C[C@@](C)(OC)[C@@H](O)[C@H](C)O2)[C@H](C)[C@@H](O[C@@H]2O[C@H](C)C[C@H](N(C)C)[C@H]2O)[C@](C)(OC)C[C@@H](C)C(=O)[C@H](C)[C@@H](O)[C@]1(C)O [C, Clarithromycin, reference compound]
MIC (S. pneum ATCC 49619; Streptococcus pneumoniae, ATCC49619, 18-24 hours, 5% CO2, read-out: Minimum Inhibitory Concentrations, S. pneum ATCC 49619): 8 ng/mL (≈ 0.0107 µM)
MIC (S. pneum 1251 (mef); Streptococcus pneumoniae, read-out: Minimum Inhibitory Concentrations, S. pneum 1251 (mef)): 8 µg/mL (≈ 10.7 µM)
MIC (S. pneum ATCC 6303; Streptococcus pneumoniae, ATCC6303, 18-24 hours, 5% CO2, read-out: Minimum Inhibitory Concentrations, S. pneum ATCC 6303): 8 ng/mL (≈ 0.0107 µM)
MIC (S. pneum CS 1687 (mef); Streptococcus pneumoniae, read-out: Minimum Inhibitory Concentrations, S. pneum CS 1687 (mef)): > 16 µg/mL
MIC (S. pneum AB 34 (mef); Streptococcus pneumoniae, read-out: Minimum Inhibitory Concentrations, S. pneum AB 34 (mef)): > 16 µg/mL
MIC (S. pneum AB 30 (erm); Streptococcus pneumoniae, read-out: Minimum Inhibitory Concentrations, S. pneum AB 30 (erm)): > 16 µg/mL
MIC (S. pneum AB 29 (erm); Streptococcus pneumoniae, read-out: Minimum Inhibitory Concentrations, S. pneum AB 29 (erm)): > 16 µg/mL
MIC (S. pneum 1294 (mef); Streptococcus pneumoniae, read-out: Minimum Inhibitory Concentrations, S. pneum 1294 (mef)): > 16 µg/mL
MIC (S. pneum AB 14 (erm); Streptococcus pneumoniae, read-out: Minimum Inhibitory Concentrations, S. pneum AB 14 (erm)): > 16 µg/mL
MIC (S. pneum 1275 (erm); Streptococcus pneumoniae, read-out: Minimum Inhibitory Concentrations, S. pneum 1275 (erm)): > 16 µg/mL
MIC (S. pneum 1256 (erm); Streptococcus pneumoniae, read-out: Minimum Inhibitory Concentrations, S. pneum 1256 (erm)): > 16 µg/mL
MIC (MoraXella MI; Moraxella, read-out: Minimum Inhibitory Concentrations, MoraXella MI): 0.125 µg/mL (≈ 0.167 µM)
MIC (H. inflenza ATCC 49247; Haemophilus influenzae, ATCC49247, read-out: Minimum Inhibitory Concentrations, H. inflenza ATCC 49247): 8 µg/mL (≈ 10.7 µM)

CCC1OC(=O)C(C)C(OC(=O)Cc2ccc(F)cc2)C(C)C(OC2OC(C)CC(N(C)Cc3cccc(O)c3)C2O)C(C)(OC)CC(C)C(=O)C(C)C(O)C1(C)O (centres unmarked) [Compound No. 17, 3-O-(4-Fluorophenyl)acetyl-5-O-[3′-N-desmethyl-3′-N-(3-hydroxy)benzyl] desosaminyl-6-O-methyl erythronolide A]
Minimum Inhibitory Concentrations, S. pneum ATCC 49619 (S. pneum ATCC 49619): <0.5 µg/mL
Minimum Inhibitory Concentrations, S. pneum 1251 (mef) (S. pneum 1251 (mef)): 1 µg/mL
Minimum Inhibitory Concentrations, S. pneum ATCC 6303 (S. pneum ATCC 6303): <0.5 µg/mL
Minimum Inhibitory Concentrations, S. pneum CS 1687 (mef) (S. pneum CS 1687 (mef)): 1 µg/mL
Minimum Inhibitory Concentrations, S. pneum AB 34 (mef) (S. pneum AB 34 (mef)): >16 µg/mL
Minimum Inhibitory Concentrations, S. pneum AB 30 (erm) (S. pneum AB 30 (erm)): >16 µg/mL
Minimum Inhibitory Concentrations, S. pneum AB 29 (erm) (S. pneum AB 29 (erm)): <0.5 µg/mL
Minimum Inhibitory Concentrations, S. pneum 1294 (mef) (S. pneum 1294 (mef)): 1 µg/mL
Minimum Inhibitory Concentrations, S. pneum AB 14 (erm) (S. pneum AB 14 (erm)): >16 µg/mL
Minimum Inhibitory Concentrations, S. pneum 1275 (erm) (S. pneum 1275 (erm)): >16 µg/mL
Minimum Inhibitory Concentrations, S. pneum 1256 (erm) (S. pneum 1256 (erm)): >16 µg/mL
Minimum Inhibitory Concentrations, MoraXella MI (MoraXella MI): 8 µg/mL
Minimum Inhibitory Concentrations, H. inflenza ATCC 49247 (H. inflenza ATCC 49247): >16 µg/mL

C#CCN(C)C1CC(C)OC(OC2C(C)C(OC(=O)Cc3ccc(F)cc3)C(C)C(=O)OC(CC)C(C)(O)C(O)C(C)C(=O)C(C)CC2(C)OC)C1O (centres unmarked) [Compound No. 18, 3-O-(4-Fluorophenyl)acetyl-5-O-(3′-N-desmethyl-3′-N-propargyl)desosaminyl-6-O-methyl erythronolide A]
Minimum Inhibitory Concentrations, S. pneum ATCC 49619 (S. pneum ATCC 49619): 1 µg/mL
Minimum Inhibitory Concentrations, S. pneum 1251 (mef) (S. pneum 1251 (mef)): 1 µg/mL
Minimum Inhibitory Concentrations, S. pneum ATCC 6303 (S. pneum ATCC 6303): 1 µg/mL
Minimum Inhibitory Concentrations, S. pneum CS 1687 (mef) (S. pneum CS 1687 (mef)): 1 µg/mL
Minimum Inhibitory Concentrations, S. pneum AB 34 (mef) (S. pneum AB 34 (mef)): 1 µg/mL
Minimum Inhibitory Concentrations, S. pneum AB 30 (erm) (S. pneum AB 30 (erm)): >16 µg/mL
Minimum Inhibitory Concentrations, S. pneum AB 29 (erm) (S. pneum AB 29 (erm)): 1 µg/mL
Minimum Inhibitory Concentrations, S. pneum 1294 (mef) (S. pneum 1294 (mef)): 1 µg/mL
Minimum Inhibitory Concentrations, S. pneum AB 14 (erm) (S. pneum AB 14 (erm)): 16 µg/mL
Minimum Inhibitory Concentrations, S. pneum 1275 (erm) (S. pneum 1275 (erm)): >16 µg/mL
Minimum Inhibitory Concentrations, S. pneum 1256 (erm) (S. pneum 1256 (erm)): >16 µg/mL
Minimum Inhibitory Concentrations, MoraXella MI (MoraXella MI): 16 µg/mL
Minimum Inhibitory Concentrations, H. inflenza ATCC 49247 (H. inflenza ATCC 49247): >16 µg/mL

CC[C@H]1OC(=O)[C@H](C)[C@@H](O[C@H]2C[C@@](C)(OC)[C@@H](O)[C@H](C)O2)[C@H](C)[C@@H](O[C@@H]2O[C@H](C)C[C@H](N(C)C)[C@H]2O)[C@](C)(O)C[C@@H](C)C(=O)[C@H](C)[C@@H](O)[C@]1(C)O [E, erythromycin A, reference compound]
Minimum Inhibitory Concentrations, S. pneum ATCC 49619 (S. pneum ATCC 49619): 0.008 µg/mL
Minimum Inhibitory Concentrations, S. pneum 1251 (mef) (S. pneum 1251 (mef)): 8 µg/mL
Minimum Inhibitory Concentrations, S. pneum ATCC 6303 (S. pneum ATCC 6303): 0.03 µg/mL
Minimum Inhibitory Concentrations, S. pneum CS 1687 (mef) (S. pneum CS 1687 (mef)): >16 µg/mL
Minimum Inhibitory Concentrations, S. pneum AB 34 (mef) (S. pneum AB 34 (mef)): >16 µg/mL
Minimum Inhibitory Concentrations, S. pneum AB 30 (erm) (S. pneum AB 30 (erm)): >16 µg/mL
Minimum Inhibitory Concentrations, S. pneum AB 29 (erm) (S. pneum AB 29 (erm)): >16 µg/mL
Minimum Inhibitory Concentrations, S. pneum 1294 (mef) (S. pneum 1294 (mef)): >16 µg/mL
Minimum Inhibitory Concentrations, S. pneum AB 14 (erm) (S. pneum AB 14 (erm)): >16 µg/mL
Minimum Inhibitory Concentrations, S. pneum 1275 (erm) (S. pneum 1275 (erm)): >16 µg/mL
Minimum Inhibitory Concentrations, S. pneum 1256 (erm) (S. pneum 1256 (erm)): >16 µg/mL
Minimum Inhibitory Concentrations, MoraXella MI (MoraXella MI): 0.06 µg/mL
Minimum Inhibitory Concentrations, H. inflenza ATCC 49247 (H. inflenza ATCC 49247): >16 µg/mL
